# Measurements: paper PMC12136037, “Type II kinase inhibitors that target Parkinson’s disease–associated LRRK2” (Science Advances, 2025)
# Where two headings read alike, the source gives them in different places.
# Tests used:
# Assay in all cases: DSF 100 kinase selectivity screen;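 note: compound tested at 20 µM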
# Type in all cases: binding
# [1] = molecular target: T1, ~100 representative kinases (Homo sapiens, UniProt Q15418); settings: Protein RPS6KA1; DSF; average of three replicates
# T1 construct: Recombinant protein kinase domains with a concentration of 2 μM
# Summary of the method: (§1)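 Each kinase domain, at 2 μM, is mixed with 20 μM test compound and SYPRO Orange in Hepes (20 mM, pH 7.5) with 500 mM NaCl. Temperature is then raised at 3°C/min and fluorescence-monitored unfolding yields the melting temperature change, ΔTm in degrees Celsius.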
# [2] = molecular target: T2, ~100 representative kinases (Homo sapiens, UniProt Q99640); settings: protein PKMYT1; average of three replicates
# T2 construct: Recombinant protein kinase domains with a concentration of 2 μM
# T2 sequence (Q99640 1-499): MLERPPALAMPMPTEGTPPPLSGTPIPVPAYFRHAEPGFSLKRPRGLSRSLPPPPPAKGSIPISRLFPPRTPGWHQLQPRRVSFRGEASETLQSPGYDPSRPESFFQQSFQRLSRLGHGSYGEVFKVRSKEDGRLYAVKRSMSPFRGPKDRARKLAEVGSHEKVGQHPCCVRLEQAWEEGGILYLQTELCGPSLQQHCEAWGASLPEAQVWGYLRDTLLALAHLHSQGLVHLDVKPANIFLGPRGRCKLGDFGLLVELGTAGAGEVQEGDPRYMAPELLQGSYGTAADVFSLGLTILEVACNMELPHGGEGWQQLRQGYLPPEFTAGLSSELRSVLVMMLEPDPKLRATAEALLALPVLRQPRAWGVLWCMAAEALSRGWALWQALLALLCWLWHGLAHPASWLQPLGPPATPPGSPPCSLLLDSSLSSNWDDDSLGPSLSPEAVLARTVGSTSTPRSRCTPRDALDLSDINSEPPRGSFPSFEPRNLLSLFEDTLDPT
# Summary of the method: as §1
# [3] = molecular target: T3, ~100 representative kinases (Homo sapiens, UniProt Q9H2G2)
# T3 construct: Recombinant protein kinase domains with a concentration of 2 μM
# T3 sequence (Q9H2G2 whole entry, the tested form may be a part): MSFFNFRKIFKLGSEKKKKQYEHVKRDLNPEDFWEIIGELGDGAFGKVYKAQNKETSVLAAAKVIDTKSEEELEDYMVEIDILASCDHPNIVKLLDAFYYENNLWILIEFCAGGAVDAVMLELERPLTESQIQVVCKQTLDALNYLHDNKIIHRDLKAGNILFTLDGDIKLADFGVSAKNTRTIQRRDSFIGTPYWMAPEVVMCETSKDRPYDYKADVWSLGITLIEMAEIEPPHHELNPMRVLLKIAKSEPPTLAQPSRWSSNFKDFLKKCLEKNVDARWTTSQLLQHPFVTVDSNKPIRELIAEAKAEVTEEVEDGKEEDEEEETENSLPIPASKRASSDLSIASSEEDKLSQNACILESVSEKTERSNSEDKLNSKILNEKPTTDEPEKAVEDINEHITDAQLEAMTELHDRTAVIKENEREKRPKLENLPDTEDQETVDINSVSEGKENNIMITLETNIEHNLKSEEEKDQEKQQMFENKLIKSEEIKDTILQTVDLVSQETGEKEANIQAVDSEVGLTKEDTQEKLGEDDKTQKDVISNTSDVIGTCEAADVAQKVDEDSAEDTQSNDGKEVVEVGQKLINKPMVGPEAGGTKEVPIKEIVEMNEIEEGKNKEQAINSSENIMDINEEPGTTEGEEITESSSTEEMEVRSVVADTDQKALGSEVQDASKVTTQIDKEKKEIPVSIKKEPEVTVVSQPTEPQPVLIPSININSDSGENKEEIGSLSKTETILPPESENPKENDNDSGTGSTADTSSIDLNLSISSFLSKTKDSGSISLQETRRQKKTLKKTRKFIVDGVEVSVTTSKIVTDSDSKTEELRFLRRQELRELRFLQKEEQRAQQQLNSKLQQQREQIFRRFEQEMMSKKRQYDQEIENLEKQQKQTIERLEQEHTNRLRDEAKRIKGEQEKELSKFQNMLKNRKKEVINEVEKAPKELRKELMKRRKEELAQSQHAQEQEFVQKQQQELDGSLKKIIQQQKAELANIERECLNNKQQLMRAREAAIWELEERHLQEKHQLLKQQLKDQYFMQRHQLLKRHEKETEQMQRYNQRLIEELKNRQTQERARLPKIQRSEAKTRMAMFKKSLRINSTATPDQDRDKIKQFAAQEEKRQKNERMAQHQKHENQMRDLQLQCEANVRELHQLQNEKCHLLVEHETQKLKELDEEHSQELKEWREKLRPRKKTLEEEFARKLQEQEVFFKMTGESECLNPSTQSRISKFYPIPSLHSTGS
# Summary of the method: as §1
# [4] = molecular target: T4, ~100 representative kinases (Homo sapiens, UniProt P49674); settings: Protein CSNK1E; average of three replicates
# T4 construct: Recombinant protein kinase domains with a concentration of 2 μM
# Summary of the method: as §1
# [5] = molecular target: T5, ~100 representative kinases (Homo sapiens, UniProt P00519)
# T5 construct: Recombinant protein kinase domains with a concentration of 2 μM
# T5 sequence (P00519 whole entry, the tested form may be a part): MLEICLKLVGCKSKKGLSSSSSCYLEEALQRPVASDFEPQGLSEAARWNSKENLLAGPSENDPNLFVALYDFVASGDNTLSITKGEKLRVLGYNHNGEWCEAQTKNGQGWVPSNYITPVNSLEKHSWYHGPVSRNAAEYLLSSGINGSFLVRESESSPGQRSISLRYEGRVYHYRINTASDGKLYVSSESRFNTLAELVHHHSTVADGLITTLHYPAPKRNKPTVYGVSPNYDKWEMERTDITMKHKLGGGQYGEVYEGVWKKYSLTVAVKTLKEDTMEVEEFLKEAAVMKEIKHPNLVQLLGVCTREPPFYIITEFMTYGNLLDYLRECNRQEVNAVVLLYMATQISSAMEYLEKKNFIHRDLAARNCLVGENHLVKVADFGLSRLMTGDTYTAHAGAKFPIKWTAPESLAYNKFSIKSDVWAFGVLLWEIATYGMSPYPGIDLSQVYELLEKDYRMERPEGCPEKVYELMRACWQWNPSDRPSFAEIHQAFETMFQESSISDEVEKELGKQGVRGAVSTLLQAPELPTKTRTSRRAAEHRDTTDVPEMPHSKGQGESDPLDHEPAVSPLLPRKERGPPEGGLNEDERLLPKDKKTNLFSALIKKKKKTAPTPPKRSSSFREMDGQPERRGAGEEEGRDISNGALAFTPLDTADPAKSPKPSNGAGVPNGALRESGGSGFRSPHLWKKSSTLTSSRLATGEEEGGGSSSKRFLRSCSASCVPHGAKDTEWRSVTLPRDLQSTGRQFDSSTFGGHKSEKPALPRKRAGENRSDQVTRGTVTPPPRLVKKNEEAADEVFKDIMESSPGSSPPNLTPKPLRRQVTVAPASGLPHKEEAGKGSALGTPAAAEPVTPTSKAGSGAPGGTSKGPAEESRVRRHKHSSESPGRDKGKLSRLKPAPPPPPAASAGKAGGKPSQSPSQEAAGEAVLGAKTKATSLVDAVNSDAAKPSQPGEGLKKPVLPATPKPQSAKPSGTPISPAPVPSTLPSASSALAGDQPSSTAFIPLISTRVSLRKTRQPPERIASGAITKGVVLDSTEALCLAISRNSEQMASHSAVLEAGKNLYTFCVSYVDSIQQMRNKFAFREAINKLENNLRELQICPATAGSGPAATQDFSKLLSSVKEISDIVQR
# Summary of the method: as §1
# [6] = molecular target: T6, ~100 representative kinases (Homo sapiens, UniProt P53355); settings: Protein DAPK1; average of three replicates
# T6 construct: Recombinant protein kinase domains with a concentration of 2 μM
# T6 sequence (P53355 whole entry, the tested form may be a part): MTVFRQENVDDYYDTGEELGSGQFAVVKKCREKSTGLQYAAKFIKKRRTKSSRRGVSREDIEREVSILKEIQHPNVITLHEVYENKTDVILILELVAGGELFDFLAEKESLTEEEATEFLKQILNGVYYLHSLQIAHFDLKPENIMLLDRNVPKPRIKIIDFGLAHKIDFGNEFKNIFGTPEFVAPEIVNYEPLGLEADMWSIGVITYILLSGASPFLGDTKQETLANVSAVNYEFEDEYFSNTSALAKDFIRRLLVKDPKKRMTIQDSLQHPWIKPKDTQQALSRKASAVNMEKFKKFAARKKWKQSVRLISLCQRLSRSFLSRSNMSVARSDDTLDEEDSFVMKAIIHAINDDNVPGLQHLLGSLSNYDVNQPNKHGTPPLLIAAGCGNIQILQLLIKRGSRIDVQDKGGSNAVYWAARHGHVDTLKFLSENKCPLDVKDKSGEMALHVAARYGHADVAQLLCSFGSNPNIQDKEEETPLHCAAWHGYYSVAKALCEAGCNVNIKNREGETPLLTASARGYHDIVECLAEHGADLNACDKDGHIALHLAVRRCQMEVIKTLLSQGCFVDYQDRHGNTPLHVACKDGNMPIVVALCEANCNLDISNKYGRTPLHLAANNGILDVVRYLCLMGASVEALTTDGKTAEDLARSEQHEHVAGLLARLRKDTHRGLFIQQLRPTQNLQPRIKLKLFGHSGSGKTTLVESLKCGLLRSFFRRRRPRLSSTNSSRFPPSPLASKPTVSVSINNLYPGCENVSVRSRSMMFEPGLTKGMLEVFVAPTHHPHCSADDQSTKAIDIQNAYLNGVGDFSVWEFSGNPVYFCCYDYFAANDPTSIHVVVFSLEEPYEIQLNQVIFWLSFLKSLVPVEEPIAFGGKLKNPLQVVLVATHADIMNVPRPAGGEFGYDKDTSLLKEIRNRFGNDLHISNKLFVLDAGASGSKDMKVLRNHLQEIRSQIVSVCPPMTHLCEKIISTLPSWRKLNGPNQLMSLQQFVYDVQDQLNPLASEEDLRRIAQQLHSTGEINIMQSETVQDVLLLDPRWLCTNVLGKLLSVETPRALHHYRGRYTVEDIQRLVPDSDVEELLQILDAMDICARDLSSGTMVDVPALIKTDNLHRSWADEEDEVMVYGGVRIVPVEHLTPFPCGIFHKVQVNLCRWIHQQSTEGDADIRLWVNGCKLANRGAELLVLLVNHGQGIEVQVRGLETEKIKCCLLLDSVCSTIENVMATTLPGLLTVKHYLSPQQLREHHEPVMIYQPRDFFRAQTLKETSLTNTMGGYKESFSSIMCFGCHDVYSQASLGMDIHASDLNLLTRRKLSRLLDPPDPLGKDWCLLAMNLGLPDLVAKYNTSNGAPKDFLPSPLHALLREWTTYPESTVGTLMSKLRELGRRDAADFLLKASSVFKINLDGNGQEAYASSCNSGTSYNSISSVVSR
# Summary of the method: as §1
# [7] = molecular target: T7, ~100 representative kinases (Homo sapiens, UniProt Q13554); settings: Protein CAMK2B; average of three replicates
# T7 construct: Recombinant protein kinase domains with a concentration of 2 μM
# Summary of the method: as §1
# [8] = molecular target: T8, ~100 representative kinases (Homo sapiens, UniProt P16083); settings: protein NQO2; average of three replicates
# T8 construct: Recombinant protein kinase domains with a concentration of 2 μM
# T8 sequence (P16083 1-231): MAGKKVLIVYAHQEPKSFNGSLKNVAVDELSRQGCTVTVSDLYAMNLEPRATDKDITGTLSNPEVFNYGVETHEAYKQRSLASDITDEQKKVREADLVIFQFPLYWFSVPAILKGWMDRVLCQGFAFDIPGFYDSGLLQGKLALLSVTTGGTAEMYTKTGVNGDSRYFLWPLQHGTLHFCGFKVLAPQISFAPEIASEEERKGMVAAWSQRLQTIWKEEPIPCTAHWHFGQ
# Summary of the method: as §1
# [9] = molecular target: T9, ~100 representative kinases (Homo sapiens, UniProt Q2M2I8); settings: Protein AAK1; average of three replicates
# T9 construct: Recombinant protein kinase domains with a concentration of 2 μM
# T9 sequence (Q2M2I8 whole entry, the tested form may be a part): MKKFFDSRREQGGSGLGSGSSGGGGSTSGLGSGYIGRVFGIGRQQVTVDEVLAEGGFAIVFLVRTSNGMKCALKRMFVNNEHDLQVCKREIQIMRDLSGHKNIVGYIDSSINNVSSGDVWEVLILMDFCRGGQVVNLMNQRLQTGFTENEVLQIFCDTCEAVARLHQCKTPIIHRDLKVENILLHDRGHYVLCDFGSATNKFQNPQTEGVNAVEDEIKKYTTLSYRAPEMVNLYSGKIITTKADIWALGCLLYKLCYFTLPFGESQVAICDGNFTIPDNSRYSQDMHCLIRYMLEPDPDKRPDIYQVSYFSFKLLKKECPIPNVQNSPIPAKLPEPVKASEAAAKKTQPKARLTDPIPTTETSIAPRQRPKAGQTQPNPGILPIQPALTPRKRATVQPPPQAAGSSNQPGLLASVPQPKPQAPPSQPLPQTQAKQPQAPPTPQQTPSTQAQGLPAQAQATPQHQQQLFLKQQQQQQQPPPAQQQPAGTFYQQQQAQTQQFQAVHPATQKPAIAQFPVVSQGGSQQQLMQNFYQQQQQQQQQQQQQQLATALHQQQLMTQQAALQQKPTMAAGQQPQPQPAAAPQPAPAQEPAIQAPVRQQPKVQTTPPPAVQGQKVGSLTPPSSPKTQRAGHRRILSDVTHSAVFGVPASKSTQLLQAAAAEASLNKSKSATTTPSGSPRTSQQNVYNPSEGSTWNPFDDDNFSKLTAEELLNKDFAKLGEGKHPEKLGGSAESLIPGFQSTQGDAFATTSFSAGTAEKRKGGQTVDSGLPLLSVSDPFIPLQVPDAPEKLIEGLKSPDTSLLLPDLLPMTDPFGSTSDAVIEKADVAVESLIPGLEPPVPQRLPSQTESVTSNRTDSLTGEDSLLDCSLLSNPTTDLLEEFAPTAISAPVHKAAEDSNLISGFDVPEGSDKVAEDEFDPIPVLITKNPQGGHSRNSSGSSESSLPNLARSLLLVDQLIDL
# Summary of the method: as §1
# [10] = molecular target: T10, ~100 representative kinases (Homo sapiens, UniProt Q12866); settings: protein MERTK; average of three replicates
# T10 construct: Recombinant protein kinase domains with a concentration of 2 μM
# T10 sequence (Q12866 21-999): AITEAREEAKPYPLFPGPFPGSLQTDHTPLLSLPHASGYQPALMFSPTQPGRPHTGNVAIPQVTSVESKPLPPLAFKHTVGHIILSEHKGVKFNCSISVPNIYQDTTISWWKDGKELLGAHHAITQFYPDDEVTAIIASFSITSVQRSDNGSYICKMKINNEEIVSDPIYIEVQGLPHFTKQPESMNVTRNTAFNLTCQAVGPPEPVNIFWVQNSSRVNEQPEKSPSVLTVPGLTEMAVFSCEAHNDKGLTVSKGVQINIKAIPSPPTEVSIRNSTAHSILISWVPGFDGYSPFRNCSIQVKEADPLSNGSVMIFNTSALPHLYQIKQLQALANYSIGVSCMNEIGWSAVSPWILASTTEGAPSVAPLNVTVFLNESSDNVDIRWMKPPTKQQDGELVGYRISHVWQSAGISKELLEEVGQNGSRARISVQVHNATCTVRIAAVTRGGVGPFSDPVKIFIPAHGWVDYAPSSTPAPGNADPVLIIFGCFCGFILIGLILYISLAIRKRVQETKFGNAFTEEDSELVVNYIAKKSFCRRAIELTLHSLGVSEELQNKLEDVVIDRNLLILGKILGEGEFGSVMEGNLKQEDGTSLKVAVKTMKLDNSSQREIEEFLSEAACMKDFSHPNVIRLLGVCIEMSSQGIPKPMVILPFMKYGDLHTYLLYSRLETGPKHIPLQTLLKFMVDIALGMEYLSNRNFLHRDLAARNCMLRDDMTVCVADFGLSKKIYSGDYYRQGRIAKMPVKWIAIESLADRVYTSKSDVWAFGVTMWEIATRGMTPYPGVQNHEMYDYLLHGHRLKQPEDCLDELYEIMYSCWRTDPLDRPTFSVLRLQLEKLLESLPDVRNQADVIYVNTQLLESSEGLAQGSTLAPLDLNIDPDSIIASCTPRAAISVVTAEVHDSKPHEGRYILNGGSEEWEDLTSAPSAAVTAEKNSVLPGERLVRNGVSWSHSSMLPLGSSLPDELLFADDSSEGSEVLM
# Summary of the method: as §1
# [11] = Protein SLK, DSF, average of three replicates
# [12] = Protein ABL1, average of three replicates
Structure (SMILES),dTm [1] [K],dTm [2] [K],"dTm [3, 11] [K]",dTm [4] [K],"dTm [5, 12] [K]",dTm [6] [K],dTm [7] [K],dTm [8] [K],dTm [9] [K],dTm [10] [K],dTm [3] [K],dTm [5] [K]
CCNc1nc(Nc2cc(F)c(C(=O)N3CCOCC3)cc2OC)ncc1C(F)(F)F [GNE-7915],0.64,-0.40,0.62,,0.74,1.29,0.10,,4.61,2.33,,
CCSc1nc(NC)c2c(-c3cccc(NC(=O)Nc4cc(C(C)(C)C)nn4-c4ccc(C)cc4)c3)c[nH]c2n1 [Compound 32],0.43,0.22,5.13,-0.41,2.07,-0.22,0.33,-0.0148,0.08,0.0365,,
"CNC(=O)c1cc(Oc2ccc(NC(=O)Nc3cc(C(C)(C)C)nn3-c3ccc4ncccc4c3)c(F)c2)ccn1 [Rebastinib, reference compound]",1.31,0.77,14.21,0.33,,-1.01,0.87,-1.54,0.20,,,
"Cc1ccc(C(=O)Nc2ccc(CN3CCN(C)CC3)c(C(F)(F)F)c2)cc1C#Cc1cnc2cccnn12 [Ponatinib, reference compound]",9.86,-0.27,,,,,,,,4.58,,
C[C@@H]1CN(c2cc(-c3n[nH]c4ccc(OC5(C)CC5)cc34)ncn2)C[C@H](C)O1 [MLi2],2.98,-0.55,-1.23,,0.50,0.22,1.04,,1.29,0.0155,,
Cn1cc(-c2c[nH]c3ncnc(N4CCOCC4)c23)cc1C#N [PFE-360],1.09,0.19,3.08,,3.25,0.54,0.00751,,8.34,0.31,,
Cc1ccc(C(=O)Nc2ccc(CN3CCN(C)CC3)c(C(F)(F)F)c2)cc1C#Cc1c[nH]c2ncnc(N3CCOCC3)c12 [Compound 1],2.57,0.41,,,7.59,0.30,0.49,0.13,3.06,3.23,,
"Cc1ccc(C(=O)Nc2ccc(CN3CCN(C)CC3)c(C(F)(F)F)c2)cc1C#Cc1cnc2[nH]ncc2c1 [GZD-824, reference compound]",9.39,0.44,,,,0.59,0.11,,5.77,5.77,15.82,30.43
CN[C@@H]1C[C@H]2O[C@@](C)([C@@H]1OC)n1c3ccccc3c3c4c(c5c6ccccc6n2c5c31)C(=O)NC4 [Staurosporine],,,,,,9.84,,,12.42,6.40,,

# More lines, main results first:
dTm [1] [K],dTm [2] [K],"dTm [3, 11] [K]",dTm [4] [K],"dTm [5, 12] [K]",dTm [6] [K],dTm [7] [K],dTm [8] [K],dTm [9] [K],dTm [10] [K],Structure (SMILES),dTm [3] [K],dTm [5] [K]
0.14,0.43,5.25,3.41,1.79,-0.92,0.96,0.0157,2.28,0.92,Cc1ccc(NC(=O)C2(C(=O)Nc3cccc(-c4c[nH]c5ncnc(N6CCOCC6)c45)c3)CC2)cc1 [Compound 14],,
0.88,-0.19,4.64,4.54,1.02,-0.31,1.87,-2.13,0.52,1.86,Cc1cc(NC(=O)C2(C(=O)Nc3ccc(F)cc3)CC2)cc(-c2c[nH]c3ncnc(N4CCOCC4)c23)c1 [Compound 6],,
0.00,-2.72,3.29,4.18,1.02,-3.19,1.75,-1.53,-2.65,0.27,O=C(Nc1cc(F)cc(Br)c1)C1(C(=O)Nc2cccc(-c3c[nH]c4ncnc(N5CCOCC5)c34)c2)CC1 [Compound 27],,
-0.37,-0.09,1.57,2.19,1.06,-0.99,0.11,-0.51,1.75,-1.03,COc1ccc(NC(=O)C2(C(=O)Nc3cccc(-c4c[nH]c5ncnc(N6CCOCC6)c45)c3)CC2)cc1 [Compound 16],,
-0.59,-0.62,8.39,-2.01,2.41,-3.64,-1.25,0.13,0.53,-1.91,Cc1ccc(-n2nc(C(C)(C)C)cc2NC(=O)Nc2cccc(-c3c[nH]c4nc(Cl)nc(N5CCOCC5)c34)c2)cc1 [Compound 30],,
-0.42,0.52,7.45,5.46,2.64,0.12,1.60,0.45,3.55,3.45,O=C(Nc1ccc(Cl)cc1)C1(C(=O)Nc2cccc(-c3c[nH]c4ncnc(N5CCOCC5)c34)c2)CC1 [Compound 13],,
0.19,-0.26,3.45,3.91,1.15,-1.06,0.23,-2.19,3.04,0.66,Cc1cc(F)ccc1NC(=O)C1(C(=O)Nc2cccc(-c3c[nH]c4ncnc(N5CCOCC5)c34)c2)CC1 [Compound 24],,
0.23,-2.28,6.64,4.37,1.47,-0.33,0.69,-0.56,3.27,2.38,O=C(Nc1ccc(F)cc1)C1(C(=O)Nc2cccc(-c3c[nH]c4ncnc(N5CCOCC5)c34)c2)CC1 [Compound 2],,
